Reference: patent US4237140A, “Analgesic mixture of nalbuphine and acetaminophen” (E. I. Du Pont de Nemours and Company, priority 1979, dated 1980)
Structures can show the parent of a compound that is named as a salt.

Test system: phenyl-p-benzoquinone induced writhing in mice
Experiment: mouse antiphenylquinone writhing test (oral analgesic activity)
Conditions: for ED50: Mus musculus, po, 5 min; for peak time for analgesia: preliminary experiment, drug alone
Protocol: Male CF1 mice obtained from Charles River Breeding Laboratories, fasted for 16-22 hours, and weighing 18-22 g at the time of testing are used throughout. All mice are dosed orally with acetaminophen and/or nalbuphine (calculated as the hydrochloride salt) dissolved completely in distilled water containing as vehicle 2% by volume of Tween 80®, a pharmacological dispersant manufactured by Fisher Scientific Company and containing 100% polysorbate 80. A dosing volume of 20 ml/kg is used. All doses are coded and the test is performed under a code not known to the observer.
Mice, intubated with various doses of nalbuphine HCl, acetaminophen, combined doses of nalbuphine.HCl and acetaminophen, or vehicle, are injected intraperitoneally with a challenge dose of phenyl-p-benzoquinone.The phenyl-p-benzoquinone is prepared as a 0.1 mg/ml solution in 5% by volume of ethanol in water; the writhing dose is 1.25 mg/kg injected at the rate of 0.25 ml/20 g. For scoring purposes a "writhe" is indicated by whole body stretching or contraction of the abdomen: mice are observed 10 minutes for the presence or absence of writhing beginning 5 minutes after receiving the phenyl-p-benzoquinone dose. Each mouse is used only once, then discarded.
Initially the time of peak activity is determined separately for each drug in the antiphenylquinone writhing test. Then several doses of each drug alone and in precise nalbuphine.HCl/acetaminophen ratios are given orally at or near the time of peak analgesic effects.
All ED50 values are determined numerically by the moving average method of Thompson (W. F. Thompson: Bacteriological Rev. 11, 115-145, 1947) and 95% confidence limits are calculated according to the method of Litchfield and Wilcoxon (J. T. Litchfield, Jr. and F. Wilcoxon: J. Pharm. Exp. Ther. 96, 99-113, 1949).

Compound	ED50	ED50 AT 5 MIN., Acetaminophen (Table 1, oral, acetaminophen component dose (alone or in combination), 95% confidence limits printed on adjacent line)	% MICE BLOCKED (oral, nalbuphine.HCl 0, acetaminophen 29.8 mg/kg)	% MICE BLOCKED (oral, nalbuphine.HCl 0, acetaminophen 59.5 mg/kg)	% MICE BLOCKED (oral, nalbuphine.HCl 0, acetaminophen 238 mg/kg)	peak time for analgesia (oral)	ED50 AT 5 MIN., Nalbuphine . HCl (Table 1, oral, nalbuphine.HCl component dose (alone or in combination), 95% confidence limits printed on adjacent line)	% MICE BLOCKED (oral, nalbuphine.HCl 1.9 mg/kg, acetaminophen 0)	% MICE BLOCKED (oral, nalbuphine.HCl 3.8 mg/kg, acetaminophen 0)	% MICE BLOCKED (oral, nalbuphine.HCl 7.6 mg/kg, acetaminophen 0)	% MICE BLOCKED (oral, nalbuphine.HCl 15.2 mg/kg, acetaminophen 0)	% MICE BLOCKED (oral, nalbuphine.HCl 30.4 mg/kg, acetaminophen 0)
CC(=O)Nc1ccc(O)cc1 [Acetaminophen, N-(4-hydroxyphenyl)acetamide]	119 mg/kg	151 mg/kg	20%	23%	55%	5 min						
Oc1ccc2c3c1O[C@H]1[C@@H](O)CC[C@@]4(O)[C@@H](C2)N(CC2CCC2)CC[C@]314 [Nalbuphine . HCl, (-)-17-(cyclobutylmethyl)-4,5α-epoxymorphinan-3,6α, 14-triol]	7.6 mg/kg					5 min	8.58 mg/kg	10%	23%	50%	63%	90%
